“Also recorded” adds a separate entry of the source.
What was measured:
human IgG antibodies = experiment: Glycan microarray with human sera and saliva, IgG; type: binding; conditions: for IgG antibody binding: human saliva and human serum (blood); for IgG binding in CP saliva compared with healthy (and recovered) patients / IgG antibody binding in saliva, compared between glycans: human saliva; for IgG antibody binding in saliva, compared between glycans: MFI, Figures 12 and 13
Text: (§1) Here, human sera and saliva from P. gingivalis infected patients were used to screen antibodies against the synthetic glycan library 1-11 to determine whether LPS fragments are potential leads for vaccine development.
(§2) Samples were taken from a pool of patients at the Charit6 Zahnklinik (provided by Prof. Dr. Henrik Dommisch). The dental status of three groups of patients was defined as: healthy (20 patients, no clinical indications for CP), infected (16 patients, CP stage III or stage IV) and recovered from CP (six patients). Recovered patients were treated from CP stage III or stage IV at the Charit6 Zahnklinik by resective and regenerative surgery and execution of two to four professional dental cleanings per year.
(§3) The synthesized LPS fragments of P. gingivalis were immobilized at NHS-activated carboxyl-functionalized glass slides in triplicates (Figure 10 A, B). Additionally, a positive glycan control containing the α(1→2)-trirhamnose (5.06) was used in the assay, because most humans develop antibodies against this pathogen-associated glycan

C57BL/6NRj mice = experiment: Glycan microarray analysis of antibody binding in sera of immunized mice; type: in vivo
Text: The immunizations were approved by Landesamt für Gesundheit und Soziales Berlin, Germany (Approval ID: G 0329/18). 8 weeks old C57BL/6NRj mice (Janvier, Le Genest-Saint_Isle, France) were housed at Bundesinstitut für Risikobewertung, Berlin, Germany in groups of five animals in individually ventilated cages (Tecniplast, Hohenpeißenberg, Germany) under specific pathogen-free conditions. Housing and experiments were in accordance with institutional guidelines and with the regulations of the Federation of European Laboratory Animal Science Associations (FELASA). Mice were immunized subcutaneously (s.c.) with 1µg of glycoconjugate per injection. The glycoconjugates, together with Alum adjuvant, were diluted in sterile PBS to a final volume of 100 µL per dose. The animals were immunized on day 0 (primary immunization) and boosted on days 14, 28, and final boosting on day 196. Blood (max. 80µL) and saliva were collected every two weeks. The mice were fixed with on hand and a swap was used to collect the saliva and was afterwards centrifuged at 400 g for 5 min. After coagulation at room temperature, serum was separated by centrifugation at 2,000 g for 10 min. The sera and saliva were frozen at -20°C until further usage. [drawing 126]
Synthetic polysaccharides containing an amine linker as well as protein controls were immobilized on glass microarray slides. The slides were then quenched, blocked with 1% BSA-PBS, and stored at 4°C until use. […]
Slides were incubated for 1 hour at 37 °C in a humidification chamber, washed three times with PBST, rinsed with deionized water, and dried by centrifugation. Fluorescence signals were measured with a Genepix 4300A device (Molecular Devices, Sunnyvale, CA, USA).
The photomultiplier tube (PMT) voltage was adjusted to avoid oversaturation of the signals. Data were analyzed using GenePix Pro 7 software (Molecular Devices, Sunnyvale, CA, USA). […]

human IgA antibodies = experiment: Glycan microarray with human sera and saliva, IgA; type: binding; conditions: human saliva and serum
Text: as §1, §2, §3

| Structure (SMILES) | IgG antibody binding (human IgG antibodies) | IgG antibody binding in saliva, compared between glycans (human IgG antibodies) | also measured |
| --- | --- | --- | --- |
| CC(=O)N[C@H]1[C@H](O[C@H]2[C@@H](O)[C@@H](CO)O[C@H](OCCCCCN)[C@@H]2O)O[C@H](CO)[C@H](O)[C@@H]1O[C@@H]1O[C@@H](C)[C@H](O[C@H]2O[C@H](CO)[C@@H](O)[C@H](O)[C@H]2O)[C@@H](O)[C@H]1O [compound 3, 5-Amino-pentyl α-D-glucopyranosyl-(1→4)-α-L-rhamnopyranosyl-(1→3)-2-acetamido-2-deoxy-β-D-galactopyranosyl-(1→3)-α-D-galactopyranoside] | showed IgG antibody binding; also recorded: show binding to IgG antibodies |  |  |
| CC(=O)N[C@H]1[C@H](OCCCCCN)O[C@H](CO)[C@H](O)[C@@H]1O[C@@H]1O[C@@H](C)[C@H](O[C@H]2O[C@H](CO[C@H]3O[C@H](CO)[C@H](O)[C@H](O)[C@H]3O)[C@@H](O)[C@H](O)[C@H]2O)[C@@H](O)[C@H]1O [compound 1, 5-Aminopentyl-α-D-galactopyranosyl-(1→6)-α-D-glucopyranosyl-(1→4)-α-L-rhamnopyranosyl-(1→3)-2-acetamido-2-deoxy-B-D-galactopyranoside] |  | strongest IgG interaction observed in these studies; also recorded: highest amount of bound IgG antibodies in this study | IgM-responses (C57BL/6NRj mice; course of the experiment, response against the named glycan): remained at low levels; IgG binding in CP saliva compared with healthy (and recovered) patients (human IgG antibodies): significantly higher than in dental healthy patients; IgG in serum of patients infected with P. gingivalis (human IgG antibodies; human serum): binds |
| NCCCCCO[C@H]1O[C@H](CO)[C@H](O)[C@H](O)[C@H]1O [compound 11, 5-Aminopentyl α-D-galactopyranoside] | show binding to IgG antibodies | bind significantly less IgG |  |
| CC(=O)N[C@H]1[C@H](O[C@H]2[C@@H](O)[C@@H](CO)O[C@H](OC[C@H]3O[C@H](OCCCCCN)[C@H](O)[C@@H](O)[C@@H]3O)[C@@H]2O)O[C@H](CO)[C@H](O)[C@@H]1O[C@@H]1O[C@@H](C)[C@H](O)[C@@H](O)[C@H]1O [compound 5, 5-Aminopentyl-α-L-rhamnopyranosyl-(1→3)-2-acetamido-2-deoxy-β-D-galactopyranosyl-(1→3)-α-D-galactopyranosyl-(1→6)-α-D-glucopyranoside] | showed IgG antibody binding; also recorded: show binding to IgG antibodies |  |  |
| C[C@@H]1O[C@@H](O[C@H]2[C@H](O[C@H]3[C@H](OCCCCCN)O[C@@H](C)[C@H](O)[C@H]3O)O[C@@H](C)[C@H](O)[C@H]2O)[C@H](O)[C@H](O)[C@H]1O [5.06, 5-Aminopentyl-a-(1→2)-L-trirhamnopyranoside, reference compound] | showed IgG antibody binding |  | IgG antibodies in saliva (human IgG antibodies; healthy individuals compared with CP and recovered CP patients): also observed in healthy individuals, but significantly less than in chronical periodontitis patients and recovered chronical periodontitis patients; IgA antibody binding (human IgA antibodies): significant binding of IgA |
| NCCCCCO[C@H]1O[C@H](CO[C@H]2O[C@H](CO)[C@H](O)[C@H](O)[C@H]2O)[C@@H](O)[C@H](O)[C@H]1O [compound 7] | showed IgG antibody binding; also recorded: show binding to IgG antibodies | bind significantly less IgG | IgA antibody binding (human IgA antibodies): significant binding of IgA |
| CC(=O)N[C@H]1[C@H](O[C@H]2[C@@H](O)[C@@H](CO)O[C@H](OCCCCCN)[C@@H]2O)O[C@H](CO)[C@H](O)[C@@H]1O[C@@H]1O[C@@H](C)[C@H](O)[C@@H](O)[C@H]1O [compound 2, 5-Aminopentyl-α-L-rhamnopyranosyl-(1→3)-2-acetamido-2-deoxy-β-D-galactopyranosyl-(1→3)-α-D-galactopyranoside] | show binding to IgG antibodies | higher amount of IgG antibody binding than to rhamnose monomer 9 | IgM levels (C57BL/6NRj mice; day 28, response against the named glycan): relatively high; IgM response peaked (C57BL/6NRj mice; response against the named glycan in mice immunized with its CRM197 conjugate (text names only the glycan)): 14 days; IgG binding in CP saliva compared with healthy (and recovered) patients (human IgG antibodies): stronger IgG binding observed for CP patients |
| CC(=O)N[C@H]1[C@H](O[C@H]2[C@@H](O)[C@@H](CO)O[C@H](OC[C@H]3O[C@H](O[C@@H]4[C@@H](O)[C@@H](O)[C@H](OCCCCCN)O[C@H]4C)[C@H](O)[C@@H](O)[C@@H]3O)[C@@H]2O)O[C@H](CO)[C@H](O)[C@@H]1O [compound 4, 5-Aminopentyl-2-acetamido-2-deoxy-β-D-galactopyranosyl-(1→3)-α-D-galactopyranosyl-(1→6)-α-D-glucopyranosyl-(1→4)-α-L-rhamnopyranoside] | showed IgG antibody binding | higher IgG antibody binding than 5 tetrasaccharide |  |

— EP4631951A1, “SYNTHETIC VACCINES AGAINST POR[…]” (Max-Planck-Gesellschaft zur Förderung der Wissenschaften …, priority 2024, dated 2025)
